Measurements taken from ChEMBL document CHEMBL2203009, “Synthesis of isoindole and benzoisoindole derivatives of teicoplanin pseudoaglycon with remarkable antibacterial and antiviral activities” (Bioorg Med Chem Lett, 2012).
In brackets after ≈: the same amount, converted by molar mass.

What was measured:
Influenza A virus = experiment: Antiviral activity against Influenza A virus (A/Puerto Rico/8/1934(H1N1)) H1N1 infected in MDCK cells assessed as inhibition of virus-induced cytopathic effect; format: functional, organism-based
Staphylococcus aureus [1] = experiment: Antimicrobial activity against methicillin-resistant Staphylococcus aureus ATCC 33591; format: functional
Human alphaherpesvirus 2 = experiment: Antiviral activity against HSV2 G infected in HEL cells assessed as inhibition of virus-induced cytopathic effect; format: functional, organism-based; conditions: Human alphaherpesvirus 2, strain G
[2] = system: Vesicular stomatitis virus; experiment: Antiviral activity against Vesicular stomatitis virus infected in HEL cells assessed as inhibition of virus-induced cytopathic effect; format: functional, organism-based
Human alphaherpesvirus 1 [3] = experiment: Antiviral activity against HSV1 KOS infected in HEL cells assessed as inhibition of virus-induced cytopathic effect; format: functional, organism-based; conditions: Human alphaherpesvirus 1, KOS
Staphylococcus aureus [4] = experiment: Antimicrobial activity against methicillin-sensitive Staphylococcus aureus ATCC 29213; format: functional
Enterococcus faecalis [5] = experiment: Antimicrobial activity against Enterococcus faecalis ATCC 51299 over-expressing vanB; format: functional
[6] = Toxicity in HEL cells assessed as induction of cell morphology changes; format: cell-based; conditions: human
[7] = Toxicity in MDCK cells assessed as induction of cell morphology changes; format: cell-based, Canis lupus familiaris; conditions: dog
[8] = system: Staphylococcus epidermidis; experiment: Antimicrobial activity against Staphylococcus epidermidis over-expressing MecA; format: functional
Enterococcus faecalis [9] = experiment: Antimicrobial activity against Enterococcus faecalis 15376 over-expressing vanA; format: functional
Enterococcus faecalis [10] = experiment: Antimicrobial activity against Enterococcus faecalis ATCC 29212; format: functional
[11] = system: Staphylococcus epidermidis; experiment: Antimicrobial activity against Staphylococcus epidermidis ATCC 35984 biofilms; format: functional
Bacillus subtilis = experiment: Antimicrobial activity against Bacillus subtilis ATCC 6633; format: functional
Influenza B virus = experiment: Antiviral activity against Influenza B virus (B/Hong Kong/05/1972) […] infected in MDCK cells assessed as inhibition of virus-induced cytopathic effect; format: functional, cell-based; conditions: B/Hong Kong/05/1972, MDCK
H3N2 subtype = experiment: Antiviral activity against Influenza A virus (A/Hong Kong/7/1987(H3N2)) […] infected in MDCK cells assessed as inhibition of virus-induced cytopathic effect; format: functional, organism-based
Human alphaherpesvirus 1 [12] = experiment: Antiviral activity against thymidine kinase deficient and acyclovir-resistant HSV1 KOS infected in HEL cells assessed as inhibition of virus-induced cytopathic effect; format: functional, organism-based; conditions: Human alphaherpesvirus 1, KOS
Vaccinia virus = experiment: Antiviral activity against Vaccinia virus infected in HEL cells assessed as inhibition of virus-induced cytopathic effect; format: functional, organism-based; conditions: Orthopoxvirus vaccinia

| Compound | EC50 (Influenza A virus) [µM] | MBC (Staphylococcus aureus [1]) [µg/mL] | MIC (Staphylococcus aureus [1]) [µg/mL] | EC50 (Human alphaherpesvirus 2) [µM] | EC50 [2] [µM] | EC50 (Human alphaherpesvirus 1 [3]) [µM] | MBC (Staphylococcus aureus [4]) [µg/mL] | MIC (Staphylococcus aureus [4]) [µg/mL] | MBC (Enterococcus faecalis [5]) [µg/mL] | MIC (Enterococcus faecalis [5]) [µg/mL] | MCC [6] [µM] | MCC [7] [µM] | MBC [8] [µg/mL] | MIC [8] [µg/mL] | MBC (Enterococcus faecalis [9]) [µg/mL] | MIC (Enterococcus faecalis [9]) [µg/mL] | MBC (Enterococcus faecalis [10]) [µg/mL] | MIC (Enterococcus faecalis [10]) [µg/mL] | MBC [11] [µg/mL] | MIC [11] [µg/mL] | also measured |
| --- | --- | --- | --- | --- | --- | --- | --- | --- | --- | --- | --- | --- | --- | --- | --- | --- | --- | --- | --- | --- | --- |
| CC(=O)N[C@@H]1[C@@H](OC(C)=O)[C@H](OC(C)=O)[C@@H](COC(C)=O)O[C@H]1Sc1c2ccccc2cn1[C@H]1C(=O)N[C@@H]2Cc3ccc(c(Cl)c3)Oc3cc4cc(c3O)Oc3ccc(cc3Cl)[C@@H](O[C@@H]3O[C@H](CO)[C@@H](O)[C@H](O)[C@H]3NC(C)=O)[C@@H]3NC(=O)[C@H](NC(=O)[C@@H]4NC(=O)[C@@H](NC2=O)c2cc(O)cc(c2)Oc2cc1ccc2O)c1ccc(O)c(c1)-c1c(O)cc(O)cc1[C@@H](C(=O)O)NC3=O | > 100 | 2 (≈ 1.07 µM) | 0.0625 (≈ 0.0335 µM) | 40 | > 100 | 40 | 1 (≈ 0.537 µM) | 0.125 (≈ 0.0671 µM) | 256 (≈ 137 µM) | 2 (≈ 1.07 µM) | > 100 | 20 | 32 (≈ 17.2 µM) | 2 (≈ 1.07 µM) | 256 (≈ 137 µM) | 0.0625 (≈ 0.0335 µM) | 256 (≈ 137 µM) | 2 (≈ 1.07 µM) | 2 (≈ 1.07 µM) | 0.0075 (≈ 0.00402 µM) | MBC (Bacillus subtilis): 1 µg/mL (≈ 0.537 µM); MIC (Bacillus subtilis): 0.25 µg/mL (≈ 0.134 µM); EC50 (Influenza B virus): > 100 µM; EC50 (H3N2 subtype): > 100 µM; EC50 (Human alphaherpesvirus 1 [12]): 45 µM; EC50 (Vaccinia virus): 45 µM |
| CC(=O)N[C@H]1[C@H](O[C@@H]2c3ccc(c(Cl)c3)Oc3cc4cc(c3O)Oc3ccc(cc3Cl)C[C@H]3NC(=O)[C@H](N)c5ccc(O)c(c5)Oc5cc(O)cc(c5)[C@H](NC3=O)C(=O)N[C@H]4C(=O)N[C@H]3C(=O)N[C@@H]2C(=O)N[C@H](C(=O)O)c2cc(O)cc(O)c2-c2cc3ccc2O)O[C@H](CO)[C@@H](O)[C@@H]1O | 23 | – | – | > 100 | > 100 | > 100 | – | – | – | – | > 100 | ≥ 100 | – | – | – | – | – | – | – | – | EC50 (Influenza B virus): > 100 µM; EC50 (H3N2 subtype): 17 µM; EC50 (Human alphaherpesvirus 1 [12]): > 100 µM; EC50 (Vaccinia virus): > 100 µM |
| CC(=O)N[C@H]1[C@H](O[C@@H]2c3ccc(c(Cl)c3)Oc3cc4cc(c3O)Oc3ccc(cc3Cl)C[C@H]3NC(=O)[C@H](n5cc6cc7ccccc7cc6c5Sc5nc6ccccc6s5)c5ccc(O)c(c5)Oc5cc(O)cc(c5)[C@H](NC3=O)C(=O)N[C@H]4C(=O)N[C@H]3C(=O)N[C@@H]2C(=O)N[C@H](C(=O)O)c2cc(O)cc(O)c2-c2cc3ccc2O)O[C@H](CO)[C@@H](O)[C@@H]1O | < 4.9 | 4 (≈ 2.33 µM) | 0.015 (≈ 0.00873 µM) | > 100 | > 100 | > 100 | 0.5 (≈ 0.291 µM) | 0.015 (≈ 0.00873 µM) | 256 (≈ 149 µM) | 1 (≈ 0.582 µM) | > 100 | 20 | 256 (≈ 149 µM) | 0.0313 (≈ 0.0182 µM) | 32 (≈ 18.6 µM) | 0.0313 (≈ 0.0182 µM) | 256 (≈ 149 µM) | 0.0313 (≈ 0.0182 µM) | 0.5 (≈ 0.291 µM) | 0.015 (≈ 0.00873 µM) | MBC (Bacillus subtilis): 4 µg/mL (≈ 2.33 µM); MIC (Bacillus subtilis): 0.0313 µg/mL (≈ 0.0182 µM); EC50 (Influenza B virus): > 100 µM; EC50 (H3N2 subtype): 1.6 µM; EC50 (Human alphaherpesvirus 1 [12]): > 100 µM; EC50 (Vaccinia virus): > 100 µM |
| CC(=O)N[C@H]1[C@H](O[C@@H]2c3ccc(c(Cl)c3)Oc3cc4cc(c3O)Oc3ccc(cc3Cl)C[C@H]3NC(=O)[C@H](n5cc6ccccc6c5S[C@@H]5O[C@H](CO)[C@@H](O)[C@H](O)[C@H]5O)c5ccc(O)c(c5)Oc5cc(O)cc(c5)[C@H](NC3=O)C(=O)N[C@H]4C(=O)N[C@H]3C(=O)N[C@@H]2C(=O)N[C@H](C(=O)O)c2cc(O)cc(O)c2-c2cc3ccc2O)O[C@H](CO)[C@@H](O)[C@@H]1O | > 100 | 1 (≈ 0.589 µM) | 0.0075 (≈ 0.00442 µM) | 40 | 52 | 45 | 1 (≈ 0.589 µM) | 0.0313 (≈ 0.0185 µM) | 256 (≈ 151 µM) | 1 (≈ 0.589 µM) | ≥ 100 | < 0.8 | 32 (≈ 18.9 µM) | 0.015 (≈ 0.00884 µM) | 256 (≈ 151 µM) | 0.0625 (≈ 0.0368 µM) | 256 (≈ 151 µM) | 2 (≈ 1.18 µM) | 0.5 (≈ 0.295 µM) | 0.0075 (≈ 0.00442 µM) | MBC (Bacillus subtilis): 1 µg/mL (≈ 0.589 µM); MIC (Bacillus subtilis): 0.125 µg/mL (≈ 0.0737 µM); EC50 (Influenza B virus): > 100 µM; EC50 (H3N2 subtype): > 100 µM; EC50 (Human alphaherpesvirus 1 [12]): ≥ 45 µM; EC50 (Vaccinia virus): 45 µM |
| CC(=O)N[C@H]1[C@H](O[C@@H]2c3ccc(c(Cl)c3)Oc3cc4cc(c3O)Oc3ccc(cc3Cl)C[C@H]3NC(=O)[C@H](n5cc6ccccc6c5S[C@@H]5O[C@H](COC(C)=O)[C@@H](OC(C)=O)[C@H](OC(C)=O)[C@H]5OC(C)=O)c5ccc(O)c(c5)Oc5cc(O)cc(c5)[C@H](NC3=O)C(=O)N[C@H]4C(=O)N[C@H]3C(=O)N[C@@H]2C(=O)N[C@H](C(=O)O)c2cc(O)cc(O)c2-c2cc3ccc2O)O[C@H](CO)[C@@H](O)[C@@H]1O | > 100 | 128 (≈ 68.6 µM) | 0.0313 (≈ 0.0168 µM) | 11 | 48 | 40 | 16 (≈ 8.58 µM) | 0.0625 (≈ 0.0335 µM) | 256 (≈ 137 µM) | 4 (≈ 2.15 µM) | ≥ 100 | 20 | 256 (≈ 137 µM) | 2 (≈ 1.07 µM) | 256 (≈ 137 µM) | 4 (≈ 2.15 µM) | 256 (≈ 137 µM) | 1 (≈ 0.536 µM) | 8 (≈ 4.29 µM) | 2 (≈ 1.07 µM) | MBC (Bacillus subtilis): 64 µg/mL (≈ 34.3 µM); MIC (Bacillus subtilis): 0.25 µg/mL (≈ 0.134 µM); EC50 (Influenza B virus): > 100 µM; EC50 (H3N2 subtype): > 100 µM; EC50 (Human alphaherpesvirus 1 [12]): 40 µM; EC50 (Vaccinia virus): 45 µM |
| CC(=O)N[C@@H]1[C@@H](O)[C@H](O)[C@@H](CO)O[C@H]1Sc1c2ccccc2cn1[C@H]1C(=O)N[C@@H]2Cc3ccc(c(Cl)c3)Oc3cc4cc(c3O)Oc3ccc(cc3Cl)[C@@H](O[C@@H]3O[C@H](CO)[C@@H](O)[C@H](O)[C@H]3NC(C)=O)[C@@H]3NC(=O)[C@H](NC(=O)[C@@H]4NC(=O)[C@@H](NC2=O)c2cc(O)cc(c2)Oc2cc1ccc2O)c1ccc(O)c(c1)-c1c(O)cc(O)cc1[C@@H](C(=O)O)NC3=O | > 100 | 1 (≈ 0.576 µM) | 1 (≈ 0.576 µM) | 45 | 52 | 47 | 1 (≈ 0.576 µM) | 0.5 (≈ 0.288 µM) | 256 (≈ 147 µM) | 4 (≈ 2.3 µM) | ≥ 100 | < 0.8 | 64 (≈ 36.8 µM) | 0.0075 (≈ 0.00432 µM) | 256 (≈ 147 µM) | 1 (≈ 0.576 µM) | 256 (≈ 147 µM) | 1 (≈ 0.576 µM) | 0.5 (≈ 0.288 µM) | 0.0313 (≈ 0.018 µM) | MBC (Bacillus subtilis): 1 µg/mL (≈ 0.576 µM); MIC (Bacillus subtilis): 0.125 µg/mL (≈ 0.0719 µM); EC50 (Influenza B virus): > 100 µM; EC50 (H3N2 subtype): > 100 µM; EC50 (Human alphaherpesvirus 1 [12]): 45 µM; EC50 (Vaccinia virus): 47 µM |
| CC(=O)N[C@@H]1[C@H](Oc2c3cc4cc2Oc2ccc(cc2Cl)[C@@H](O[C@@H]2O[C@@H](CO)[C@@H](O)[C@H](O)[C@@H]2NC(C)=O)[C@@H]2NC(=O)[C@H](NC(=O)[C@@H]4NC(=O)[C@H]4NC(=O)[C@@H](Cc5ccc(c(Cl)c5)O3)NC(=O)[C@H](N)c3ccc(O)c(c3)Oc3cc(O)cc4c3)c3ccc(O)c(c3)-c3c(O[C@H]4O[C@H](CO)[C@@H](O)[C@@H](O)[C@@H]4O)cc(O)cc3[C@@H](C(=O)O)NC2=O)O[C@@H](CO)[C@@H](O)[C@@H]1O | – | 2 (≈ 1.13 µM) | 0.5 (≈ 0.283 µM) | – | – | – | 2 (≈ 1.13 µM) | 0.5 (≈ 0.283 µM) | 256 (≈ 145 µM) | 4 (≈ 2.26 µM) | – | – | 32 (≈ 18.1 µM) | 8 (≈ 4.53 µM) | 256 (≈ 145 µM) | 256 (≈ 145 µM) | 64 (≈ 36.2 µM) | 2 (≈ 1.13 µM) | 16 (≈ 9.05 µM) | 2 (≈ 1.13 µM) | MBC (Bacillus subtilis): 16 µg/mL (≈ 9.05 µM); MIC (Bacillus subtilis): 0.5 µg/mL (≈ 0.283 µM) |
